# From patent US20230027361A1, “METTL3 MODULATORS” (priority 2019, published 2023)
# How the values were obtained:
# [1] = tested on: MOLM-13 cells; experiment: MOLM-13 48 Hour Cell Proliferation Assay; format: cell-based; conditions: Homo sapiens
# Summary of the method: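 MOLM-13 cells in RPMI 1640 with 10% FBS, plated overnight, then exposed 48 h at 37 °C to a 10-point, 4-fold compound dilution series (0.25% DMSO final). Viability read by CellTiter-Glo luminescence, normalized to staurosporine (100% death) and DMSO (0%); IC50 from 4-parameter logistic fit.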
# [2] = biological target: T1, METTL16 (Homo sapiens, UniProt Q86W50); experiment: METTL16 Assay (METTL16 biochemical assay); conditions: read-out: METTL16 IC50
# T1 sequence (Q86W50 1-562): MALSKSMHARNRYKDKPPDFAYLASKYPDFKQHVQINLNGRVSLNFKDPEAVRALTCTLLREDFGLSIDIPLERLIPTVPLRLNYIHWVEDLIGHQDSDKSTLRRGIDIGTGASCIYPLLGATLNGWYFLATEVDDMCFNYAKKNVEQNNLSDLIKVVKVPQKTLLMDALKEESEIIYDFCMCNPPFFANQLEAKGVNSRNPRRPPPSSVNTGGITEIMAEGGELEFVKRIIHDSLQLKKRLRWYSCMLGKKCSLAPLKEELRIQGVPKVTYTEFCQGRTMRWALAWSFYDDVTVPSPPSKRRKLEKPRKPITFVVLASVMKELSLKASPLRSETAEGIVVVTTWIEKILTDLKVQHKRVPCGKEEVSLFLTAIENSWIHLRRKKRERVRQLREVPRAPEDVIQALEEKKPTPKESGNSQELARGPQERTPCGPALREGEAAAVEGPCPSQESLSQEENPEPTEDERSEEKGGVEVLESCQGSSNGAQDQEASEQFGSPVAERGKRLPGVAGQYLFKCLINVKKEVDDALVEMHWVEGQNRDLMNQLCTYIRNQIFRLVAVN
# Summary of the method: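 Radiometric methyltransferase reaction at ambient temperature in 20 mM HEPES pH 7.5, 50 mM KCl, 1 mM DTT, with 100 nM enzyme preincubated 5 min with compound. It was started with 50 nM 3′-biotinylated RNA, 200 nM 3H-SAM plus 800 nM cold SAM, run 20 min, then quenched with excess cold SAM. Product was captured on streptavidin flashplates and scintillation-counted.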
Structure (SMILES),IC50 [1],IC50 [2]
CCNc1ccc2ccc(OC[C@H]3O[C@@H](n4cc(-c5cn(C)cn5)c5c(N)ncnc54)[C@@H](F)[C@@H]3O)cc2n1 [I-10],1 to 10 µM,> 1 µM
CNc1ccc2ccc(OC[C@H]3O[C@@H](n4cc(-c5ccn(C)n5)c5c(N)ncnc54)[C@@H](F)[C@@H]3O)cc2n1 [I-12],< 1 µM,> 1 µM
CNc1ccc2ccc(OC[C@H]3O[C@@H](n4cc(CC5CCCC5)c5c(N)ncnc54)[C@H](O)[C@@H]3O)cc2n1 [I-23],> 10 µM,> 1 µM
CNc1ccc2ccc(OC[C@H]3O[C@@H](n4cc(C5CC5)c5c(N)ncnc54)[C@@H](F)[C@@H]3O)cc2n1 [I-29],< 1 µM,> 1 µM
"CNc1ccc2ccc(OC[C@H]3O[C@@H](n4cc(C5CCCC5)c5c(N)ncnc54)[C@H](O)[C@@H]3O)cc2n1 [I-33, (2R,3R,4S,5R)-2-(4-amino-5-cyclopentyl-7H-pyrrolo[2,3-d]pyrimidin-7-yl)-5-(((2-(methylamino)quinolin-7-yl)oxy)methyl)tetrahydrofuran-3,4-diol]",1 to 10 µM,> 1 µM
CNc1ccc2ccc(OC[C@H]3O[C@@H](n4cc(CC5CC5)c5c(N)ncnc54)[C@@H](F)[C@@H]3O)cc2n1 [I-36],1 to 10 µM,> 1 µM
CNc1ccc2ccc(CC[C@H]3O[C@@H](n4cc(C5CCCC5)c5c(N)ncnc54)[C@H](O)[C@@H]3O)cc2n1 [I-39],1 to 10 µM,> 1 µM
CNc1ccc2ccc(OC[C@H]3O[C@@H](n4cc(Cl)c5c(N)ncnc54)[C@H](O)[C@@H]3O)cc2n1 [I-70],1 to 10 µM,> 1 µM
CNc1ccc2ccc(OC[C@H]3O[C@@H](n4cc(Br)c5c(N)ncnc54)[C@H](O)[C@@H]3O)cc2n1 [I-73],1 to 10 µM,> 1 µM
Cn1ccc(-c2cn([C@@H]3O[C@H](COc4ccc5ccc(N6CCC6)nc5c4)[C@@H](O)[C@@H]3F)c3ncnc(N)c23)n1 [I-149],< 1 µM,> 1 µM
